Structures are written as SMILES. In brackets after ≈: the same amount, converted by molar mass. Counter-ions that a name gives are not always drawn. Like-named read-outs stand apart in the source and are kept apart here. Some results are limits rather than exact numbers.

The test has as its system Giardia duodenalis trophozoites (BAH2c2 strain). Nature of the test: Resazurin reduction assay on Giardia trophozoites in vitro. The test is classed as cell-based. To be noted: for MIC: minimum inhibitory concentration, read-out: Antigiardial activity MIC (24 h); for Antigiardial activity MLC (24 h): minimum lethal concentration; for Antigiardial activity at 5 h: 25 μM. The source says: Biology Materials and Methods:
Metronidazole was sourced from sigma.
Chemicals used for the culture of Giardia in vitro were sourced as follows: glucose and L-cysteine (ACROS organics, Thermo Fisher Scientific, Scoresby, Vic), Ammonium Iron (III) citrate, ascorbic Acid (Sigma -aldrich, Castle Hill, NSW), potassium dihydrogen orthophosphate (UNIVAR, Ingleburn, NSW), bovine bi le (Fluka analytical (BD)), di-potassium hydrogen orthophosphate (Fronine laboratory supplies, Riverstone, NSW).
G. duodenalis (BAH2c2 strain) was cultivated according to the method of Clark and Diamond in Keister’s modified TYI-S-33 medium, supplemented with heat inactivated foetal bovine serum (Hyclone™, Thermo Scientific, Scoresby, Vic) at 37°C in plastic 9 mL screw-capped test tubes (nunc). Subcultures were performed once a confluent monolayer was observed, approximately 2 – 3 times per week (Clark and Diamond, 2002).
CaCo-2 cells, a human cell line derived from a primary colonic tumour, were sourced from Cellbank Australia and were maintained in MEM supplemented with 2 mM glutamine, 1% non-essential amino acids and 10% FCS (Thermo Scientific). Cells were passaged when confluent, approximately 1-2 times per week. Vero cells were also obtained from Cellbank Australia and maintained as above.
In vitro drug efficacy assays
Resazurin Reduction Assay […]
tested to identify the IC50 and minimum lethal concentration (MLC). For all assays the media of confluent cultures was replaced with fresh media and the cultures were placed on ice for 40 minutes to detach trophozoites.
Trophozoites were enumerated using a haemocytometer and 50 000 trophozoites were added to each test well of a 96 well plate. Either single concentrations (final concentration 25 μM) for the screening assay or tripling dilutions […]
wells. The assays were repeated in triplicate with metronidazole and a DMSO (vehicle only) used as controls. Plates were incubated under anaerobic conditions (anaerogen sachet, Thermofisher scientific) for 5 or 24 hours at 37°C following which the viability of treated cells was determined using the resazurin reduction assay (Benere et al., 2007). The media was removed and replaced with an equal volume of warm PBS. Resazurin (Sigma) was then added at 10% of the total volume of the wells. Plates were further incubated for colour development and absorbance read at 570 nm and 630 nm. Resazurin reduction was calculated according to the following formula: […]
CaCo-2 or Vero cells, maintained as outlined above, were collected via trypsinisation and enumerated using trypan blue and a haemocytometer. Select analogues were prepared in DMSO so that the final concentration in the assay was 25 μM. 1 X 10^5 cells/ml were added to each assay with the appropriate drug dilution. Assays were completed in 96 well plates and incubated for 24 hours at 37°C, 5% CO2 in a humidified incubator. After incubation cells were […]
washed with warm PBS before the addition of 10% resazurin in PBS. Assays were incubated to allow colour development and absorbance read at 630 and 570nm. Activity of the analogues against mammalian cells was calculated according to the formula stated above.
(In general: Alamar Blue is a resazurin reagent that responds to reducing activity.)

Where [1] appears, read: Giardia duodenalis, 24 h, read-out: Antigiardial activity IC50 (24 h).
The mark [2] stands for this setting: 24 h, read-out: Antigiardial activity IC50 (24 h).
Setting [3] is: Giardia duodenalis, 5 h, read-out: Antigiardial activity IC50 (5 h).

Broadly, the MIC is the lowest concentration that inhibits growth of the organism. As to `Cc1ccc(C=NNC(=N)NN=Cc2ccc(C)cc2)cc1` [Compound 14], the minimum inhibitory concentration (MIC) (Giardia duodenalis, 24 h) was 25 µM (≈ 7.33 µg/mL). The IC50 is the concentration that gives 50% inhibition. `N=C(NN=Cc1ccc(SC(F)(F)F)cc1)NN=Cc1ccc(SC(F)(F)F)cc1` [Compound 32, 2,2′‐bis{[4‐(trifluoromethylsulfanyl)phenyl]methylene}carbonimidic dihydrazide hydrochloride]: under setting [1], the IC50 was found to be 0.2 µM.

As to `C#Cc1cccc(C=NNC(=N)NN=Cc2cccc(C#C)c2)c1` [Compound 23], the IC50 under setting [1] turned out to be 1.2 µM. For the same compound, the minimal inhibitory concentration (MIC) (Giardia duodenalis, 24 h) came out at 25 µM (≈ 7.83 µg/mL). In the same order, the values of `Cc1cccc(C=NNC(=N)NN=Cc2cccc(C)c2)c1` [Compound 15] are 4.9 µM and 6.25 µM (≈ 1.83 µg/mL). With `COc1ccccc1C=NNC(=N)NN=Cc1ccccc1OC.Cl` [Compound 26], the “Antigiardial activity MLC (24 h)” value (24 h) is above 25 µM. For the same compound, the IC50 under setting [2] was above 25 µM. With `Cl.N=C(NN=Cc1cc(F)ccc1F)NN=Cc1cc(F)ccc1F` [Compound 37], for the setting “5 h”, the “Antigiardial activity at 5 h” value was “inactive”.

Consider `CC(C)c1ccc(C=NNC(=N)NN=Cc2ccc(C(C)C)cc2)cc1` [Compound 21], for which the half-maximal inhibitory concentration (IC50) under setting [1] was 1.9 µM. Also, the MIC (Giardia duodenalis, 24 h) stood at 6.25 µM (≈ 2.18 µg/mL). In the same order, the values of `N=C(NN=Cc1cccc(Cl)c1)NN=Cc1cccc(Cl)c1` [Compound 8] are 3.5 µM and 6.25 µM (≈ 2.09 µg/mL). As to `CN(C)c1ccc(C=NN=C(N)NN=Cc2ccc(N(C)C)cc2)cc1` [Compound 33], the “Antigiardial activity MLC (24 h)” value (24 h) was 25 µM. Besides, the half-maximal inhibitory concentration (IC50) under setting [2] was determined as 1.1 µM. For the compound `N=C(NN=Cc1cccc(F)c1)NN=Cc1cccc(F)c1` [Compound 10], the IC50 under setting [1] is above 25 µM. In addition, the minimal inhibitory concentration (MIC) (Giardia duodenalis, 24 h) is above 25 µM. For `N=C(NN=Cc1ccccc1O)NN=Cc1ccccc1O` [Compound 29], the IC50 under setting [1] is above 25 µM. `CC(C)(C)c1ccc(C=NNC(=N)NN=Cc2ccc(C(C)(C)C)cc2)cc1` [Compound 22]: the IC50 under setting [1] was determined as 3.2 µM. In addition, for the setting “Giardia duodenalis, 24 h”, the minimal inhibitory concentration (MIC) stood at 8.3 µM (≈ 3.13 µg/mL).

Regarding `N=C(NN=Cc1ccc(O)cc1)NN=Cc1ccc(O)cc1` [Compound 27], the IC50 under setting [1] is above 25 µM.

Take `Cl.N=C(NN=Cc1c(F)c(F)c(F)c(F)c1F)NN=Cc1c(F)c(F)c(F)c(F)c1F` [Compound 39]: the “Antigiardial activity at 5 h” value (5 h) is “inactive”.

`N=C(NN=Cc1cccc(O)c1)NN=Cc1cccc(O)c1` [Compound 28]: the IC50 under setting [1] was above 25 µM. Regarding `N=C(NN=Cc1ccc(-c2ccccc2)cc1)NN=Cc1ccc(-c2ccccc2)cc1` [Compound 17], under setting [1], the concentration for half-maximal inhibition (IC50) worked out at 0.4 µM. For the setting “Giardia duodenalis, 24 h”, the MIC was found to be 2.8 µM (≈ 1.17 µg/mL). Taken in the same sequence, the figures for `CCCc1ccc(C=NNC(=N)NN=Cc2ccc(CCC)cc2)cc1` [Compound 19] were 0.8 µM and 8.3 µM (≈ 2.9 µg/mL).

Turning to `Cc1ccccc1C=NNC(=N)NN=Cc1ccccc1C` [Compound 16], where the note is “Giardia duodenalis, 24 h”, the MIC came out at 25 µM (≈ 7.33 µg/mL).

On to `COc1cc(C=NNC(=N)NN=Cc2ccc(O)c(OC)c2)ccc1O` [Compound 47], for which the half-maximal inhibitory concentration (IC50) under setting [3] is above 25 µM. As for `CCCCc1ccc(C=NNC(=N)NN=Cc2ccc(CCCC)cc2)cc1` [Compound 20], the IC50 under setting [1] stood at 1.9 µM. The minimum inhibitory concentration (MIC) (Giardia duodenalis, 24 h) was 8.3 µM (≈ 3.13 µg/mL). Regarding `CSc1ccc(C=NNC(=N)NN=Cc2ccc(SC)cc2)cc1` [Compound 31], the IC50 under setting [1] was 0.9 µM. On to `N=C(NN=Cc1ccc(F)cc1)NN=Cc1ccc(F)cc1` [Compound 7], for which, under setting [1], the IC50 amounted to 6.52 µM. For the setting “Giardia duodenalis, 24 h”, the minimum inhibitory concentration (MIC) is 12.5 µM (≈ 3.77 µg/mL). For `COc1ccc(C=NNC(=N)NN=Cc2ccc(OC)c(OC)c2)cc1OC` [Compound 44], the concentration for half-maximal inhibition (IC50) reads like this: (5 h, read-out: Antigiardial activity IC50 (5 h)) 24.9 µM; under setting [3], at most 25 µM. As to `N=C(NN=Cc1cccc(Br)c1)NN=Cc1cccc(Br)c1` [Compound 9], the IC50 under setting [1] was 2.9 µM. Also, the MIC (Giardia duodenalis, 24 h) stood at 25 µM (≈ 10.6 µg/mL). With `COc1cccc(C=NNC(=N)NN=Cc2cccc(OC)c2)c1` [Compound 25], under setting [1], the half-maximal inhibitory concentration (IC50) was above 25 µM. `N=C(NN=Cc1ccc(OC(F)(F)F)cc1)NN=Cc1ccc(OC(F)(F)F)cc1` [Compound 30, 2,2′‐bis{[4‐(trifluoromethoxy)phenyl]methylene}carbonimidic dihydrazide hydrochloride]: the IC50 under setting [1] was 0.2 µM.

The record behind these values is PMC9828538, “Antigiardial Activity of Novel Guanidine Compounds” (Chemmedchem, 2022).
